Tests used:
[1] = tested on: male Swiss albino mice (CD-1); experiment: Psychomotor seizure test 6 Hz (44 mA); format: in vivo; settings: 0.5 h, mice; for 6 Hz (44 mA): number of mice protected/number of mice tested: screening, 100 mg/kg i.p.
Description: (§1) All procedures were carried out in accordance with applicable Polish and international guidelines on the ethics of animal testing, after obtaining appropriate institutional approval. The substances were administered intraperitoneally (i.p.), in 1% aqueous solution of Tween, as single injections with a volume of 10 ml/kg, 30 minutes before the given test. Screening was performed on groups consisted of 4 mice. […] All tests were carried out based on the procedures described in the specialist literature.
In the 6 Hz test, seizures were induced by an electric stimulus of 32 mA and/or 44 mA and a frequency of 6 pulses per second. […] Before starting the test, the eye surface was gently moistened with a solution of local anesthetic (1% lidocaine solution). The study was conducted 30 minutes after intraperitoneal administration of the compounds at various doses. An electrical pulse was delivered continuously for a period of 3 seconds, followed by observation of the animal for a period of 10 seconds. During this time, immobility or stun associated with rearing, forelimb clonus, twitching of the vibrissae and Straub's tail were observed. These symptoms persist throughout the observation period, indicating the occurrence of psychomotor seizures in mice.
(§2) To perform a statistical evaluation of the results, one-way ANOVA variance analysis and Dunnett's post hoc test (multiple comparison test) were used. The value at the significance level p<0.05 was considered statistically significant.

[2] = tested on: male Swiss albino mice (CD-1); experiment: Subcutaneous pentylenetetrazole seizure test (scPTZ); format: in vivo; settings: 0.5 h, mice; for ED50 / responders at 100 mg/kg: Mus musculus, ip; for responders at 100 mg/kg / scPTZ: number of mice protected/number of mice tested: screening, 100 mg/kg i.p.; for responders at 100 mg/kg: read-out: scPTZ: number of mice protected/number of mice tested (converted)
Description: (§3) The male Swiss albino mice (CD-1) weighing 18-26 g were used. All procedures were carried out in accordance with applicable Polish and international guidelines on the ethics of animal testing, after obtaining appropriate institutional approval. The substances were administered intraperitoneally (i.p.), in 1% aqueous solution of Tween, as single injections with a volume of 10 ml/kg, 30 minutes before the given test. Screening was performed on groups consisted of 4 mice. The average effective dose (ED50) in given test and toxic dose in the rotarod test (TD50) was estimated based on the results obtained in 3-4 groups of animals consisting of 6 mice. All tests were carried out based on the procedures described in the specialist literature.
In the scPTZ test, seizures were induced by subcutaneous administration of pentylenetetrazole (PTZ) at a dose of 100 mg/kg. This caused clonic seizures with accompanying loss of the righting reflex. Test compounds were administered 30 minutes before the experiment. After PTZ administration, the animals were placed individually in transparent containers and observed for a period of 30 minutes for the occurrence of clonic seizures. During this time, the latency of the first onset of clonic seizures, defined as clonus of the whole body lasting at least 3 seconds with loss of the righting reflex and the number of seizure episodes during the test were noted and compared with control group. The absence of clonic convulsions within the observed time period was interpreted as the compound's ability to protect against PTZ-induced seizures (Ferreri, G.; Chimirri, A.; Russo, E.; Gitto, R.; Gareri, P.; De Sarro, A.; De Sarro, G. Pharmacol. Biochem. Behav. 2004, 77, 85-94; Łączkowski, K.; Sałat, K.; Misiura, K.; Podkowa, A.; Malikowska, N. J. Enzyme Inhib. Med. Chem. 2016, 31, 1576-82).
as §2

[3] = Rotarod test (motor coordination); format: in vivo; settings: male, Swiss albino (CD-1), mouse, in vivo, ip, mice
Description: as §1
Mice were trained the day before the actual experiment. They were placed individually on a 2 cm diameter rod rotating at 10 revolutions per minute (rpm). During each training session, the animals remained on the rod for 3 minutes. The experiment was carried out 30 minutes after administration of the compounds. Motor coordination was tested at the speed of the rotating bar: 10 rpm during 60 seconds. Motor impairments were defined as the inability to remain on the rotating rod for 1 min.
as §2

[4] = tested on: male Swiss albino mice (CD-1); experiment: Maximal electroshock seizure test (MES); format: in vivo; settings: 0.5 h, mice; for ED50 / responders at 100 mg/kg: Mus musculus, ip; for responders at 100 mg/kg / MES: number of mice protected/number of mice tested: screening, 100 mg/kg i.p.; for responders at 100 mg/kg: read-out: MES: number of mice protected/number of mice tested (converted)
Description: as §3
In the MES test, the seizures were induced by an electrical stimulus lasting of 0.2 s duration, 500 V voltage and 25 mA intensity. The electrical stimuli was generated using an electric shock generator (Rodent shocker, Type 221, Hugo Sachs Elektronik, Germany) and delivered to the animal using electrodes placed on the auricles. The study was conducted 30 minutes after intraperitoneal administration of the compounds at various doses. During the experiment, the number of animals that experienced a seizure episode in the form of tonic extension of the hind limbs was counted (Kamiński, K.; Rapacz, A.; Łuszczki, J. J.; Latacz, G.; Obniska, J.; Kieć-Kononowicz, K.; Filipek, B. Bioorg. Med. Chem. 2015, 23, 2548-2561; Castel-Branco, M. M.; Alves, G. L.; Figueiredo, I. V.; Falcão, A. C.; Caramona, M. M. Methods Find. Exp. Clin. Pharmacol. 2009, 31, 101-106).
as §2

[5] = tested on: male Swiss albino mice (CD-1); experiment: Psychomotor seizure test 6 Hz (32 mA); format: in vivo; settings: 0.5 h, mice; for ED50 / responders at 100 mg/kg: Mus musculus, ip; for responders at 100 mg/kg / 6 Hz (32 mA): number of mice protected/number of mice tested: screening, 100 mg/kg i.p.; for responders at 100 mg/kg: read-out: 6 Hz (32 mA): number of mice protected/number of mice tested (converted)
Description: as §3
In the 6 Hz test, seizures were induced by an electric stimulus of 32 mA and/or 44 mA and a frequency of 6 pulses per second. An electrical pulse was generated using an electric shock generator (ECT Unit 57800; Ugo Basile, Gemonio, Italy) and delivered to the animal using ocular electrodes. Before starting the test, the eye surface was gently moistened with a solution of local anesthetic (1% lidocaine solution). The study was conducted 30 minutes after intraperitoneal administration of the compounds at various doses. An electrical pulse was delivered continuously for a period of 3 seconds, followed by observation of the animal for a period of 10 seconds. During this time, immobility or stun associated with rearing, forelimb clonus, twitching of the vibrissae and Straub's tail were observed. These symptoms persist throughout the observation period, indicating the occurrence of psychomotor seizures in mice. Mice resuming normal behavior within 10 s after stimulation were considered as protected (Barton, M. E.; Klein, B. D.; Wolf, H. H.; White, H. S. Epilepsy Res. 2001, 47, 217-227; Wojda, E.; Wlaź, A.; Patsalos, P. N.; Łuszczki, J. J. Epilepsy Res. 2009, 86, 163-174).
as §2

SMILES | 6 Hz (44 mA): number of mice protected/number of mice tested [1] | melting point [°C] | ED50 [2] [mg/kg] | responders at 100 mg/kg [2] [%] | scPTZ: number of mice protected/number of mice tested ([2]; 100 mg/kg) | TD50 at 0.5 h [3] [mg/kg] | ED50 [4] [mg/kg] | responders at 100 mg/kg [4] [%] | MES: number of mice protected/number of mice tested [4] | ED50 [5] [mg/kg] | responders at 100 mg/kg [5] [%] | scPTZ: number of mice protected/number of mice tested [2] | ED50 ([1]; Mus musculus, ip) [mg/kg] | 6 Hz (32 mA): number of mice protected/number of mice tested [5]
O=C(C(c1ccccc1)N1C(=O)CCC1=O)N1CCC(c2cccc(C(F)(F)F)c2)CC1 (racemic) [Compound 19, 1-(2-Oxo-1-phenyl-2-(4-(3-(trifluoromethyl)phenyl)piperidin-1-yl)ethyl)pyrrolidine-2,5-dione] | 2/4 | 100.1 to 101.5 | < 100 | 100 | ¾ | 254 | 81.8 | 100 | ¾ | 41 | 100 |  |  | 
O=C(C(c1ccccc1)N1C(=O)CCC1=O)N1CCN(c2cccc(Cl)c2)CC1 (racemic) [Compound 3, 1-(2-(4-(3-Chlorophenyl)piperazin-1-yl)-2-oxo-1-phenylethyl)pyrrolidine-2,5-dione] | ¾ | 128.1 to 129 | 52.6 |  |  | 144 | 36.9 | 100 |  | 39.5 | 100 | ¾ |  | 
O=C(C(c1ccccc1)N1C(=O)CCC1=O)N1CCN(c2cccc(C(F)F)c2)CC1 (racemic) [Compound 9, 1-(2-Oxo-1-phenyl-2-(4-(3-(difluoromethyl)phenyl)piperazin-1-yl)ethyl)pyrrolidine-2,5-dione] |  | 156.4 to 157.6 | 94.3 |  |  | 274 | 97.7 |  |  | 63 |  |  | 196 | 
O=C([C@H](c1ccccc1)N1C(=O)CCC1=O)N1CCN(c2cccc(C(F)(F)F)c2)CC1 [(S)-6, (S)-1-(2-Oxo-1-phenyl-2-(4-(3-(trifluoromethyl)phenyl)piperazin-1-yl)ethyl) pyrrolidine-2,5-dione] | ¼ |  | 75.4 |  |  | > 300 | 68.5 |  | ¾ | > 130 | 50 | ¾ |  | 
O=C(C(c1ccccc1)N1C(=O)CCC1=O)N1CCN(c2cccc(OC(F)(F)F)c2)CC1 (racemic) [Compound 10, 1-(2-Oxo-1-phenyl-2-(4-(3-(trifluoromethoxy)phenyl)piperazin-1-yl)ethyl)pyrrolidine-2,5-dione] | ¾ | 100.3 to 101.6 | < 60 | 50 |  | 74 | 41.7 | 100 |  | 38.3 | 100 |  |  | 
O=C([C@@H](c1ccccc1)N1C(=O)CCC1=O)N1CCN(c2cccc(Cl)c2)CC1 [(R)-3, (R)-1-(2-(4-(3-chlorophenyl)piperazin-1-yl)-2-oxo-1-phenylethyl)pyrrolidine-2,5-dione] |  | 167.3 to 168.1 | 78.3 |  |  | 223 | 57.7 | 100 |  | 49.3 | 100 | ¾ |  | 
O=C(C(c1ccc(F)cc1)N1C(=O)CCC1=O)N1CCN(c2cccc(C(F)(F)F)c2)CC1 (racemic) [Compound 14, 1-(1-(4-Fluorophenyl)-2-oxo-2-(4-(3-(trifluoromethyl)phenyl)piperazin-1-yl)ethyl)pyrrolidine-2,5-dione] |  | 88.8 to 90.7 | < 100 | 50 |  | > 300 | 56.4 | 100 |  | 48.3 |  |  |  | ¾
O=C(C(c1ccccc1)N1C(=O)CCC1=O)N1CCN(c2cccc(-c3ccccc3)c2)CC1 (racemic) [Compound 13, 1-(2-(4-([1,1′-Biphenyl]-3-yl)piperazin-1-yl)-2-oxo-1-phenylethyl)pyrrolidine-2,5-dione] | 4/4 | 114.1 to 115.4 | < 100 | 50 |  | 73.6 | 43.9 | 100 |  | 26.2 | 100 |  |  | 
O=C(C(c1ccccc1)N1C(=O)CCC1=O)N1CCN(c2cc(Cl)cc(Cl)c2)CC1 (racemic) [Compound 4, 1-(2-(4-(3,5-Dichlorophenyl)piperazin-1-yl)-2-oxo-1-phenylethyl)pyrrolidine-2,5-dione] |  | 163.8 to 165.2 | > 100 |  |  | > 300 | 68.5 |  | ¾ | 17.7 | 100 | ¾ |  | 
O=C(C(c1ccccc1)N1C(=O)CCC1=O)N1CCN(c2ccccc2)CC1 (racemic) [Compound 2, 1-(2-Oxo-1-phenyl-2-(4-phenylpiperazin-1-yl)ethyl)pyrrolidine-2,5-dione] | 2/4 | 156.7 to 157.4 | 100 |  |  | > 300 | 91.1 | 100 |  | 83.5 |  | ¾ |  | ¾
O=C([C@@H](c1ccccc1)N1C(=O)CCC1=O)N1CCN(c2cccc(OC(F)(F)F)c2)CC1 [(R)-10, (R)-1-(2-Oxo-1-phenyl-2-(4-(3-(trifluoromethoxy)phenyl)piperazin-1-yl)ethyl)pyrrolidine-2,5-dione] |  | 168.2 to 169.1 | < 60 | 50 |  | > 150 | 22.6 | 100 |  | 12.8 | 100 |  |  | 

— patent US12139458B2, “(2,5-dioxopyrrolidin-1-yl)(phenyl)-acetamide derivatives and their use in the treatment of neurological diseases” (UNIWERSYTET JAGIELLONSKI, priority 2019, dated 2024)
